From patent US9447086B2, “6-amino acid heteroaryldihydropyrimidines for the treatment and prophylaxis of hepatitis B virus infection” (priority 2012, dated 2016)
In brackets after ≈: the same amount, converted by molar mass. Where two headings read alike, the source gives them in different places.

Legend:
[1] = test system: HBV; test: Anti-HBV activity in vitro in HepG2.2.15 cells (extracellular HBV DNA by qPCR); format: cell-based, Hepatitis B virus; conditions: Hepatitis B virus
Summary of the method: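 Supernatant HBV DNA was measured by qPCR after viral DNA extraction. Samples came from 5-day cultures of HepG2.2.15 cells, an HBV-genome-transfected HepG2 line, exposed to half-log compound dilutions in medium containing 0.5% DMSO.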

[2] = test system: HepDE19 cells; test: Cytotoxicity (CC50) in HepDE19 cells, CCK-8 cell viability; format: cell-based
Summary of the method: (§1)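 HBV-transfected HepG2-derived HepDE19 cells grown in DMEM-F12 with 10% FBS and G418. Viability read five days after treatment by CCK-8, 2 h at 37 °C, absorbance at 450 and 630 nm.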

[3] = test system: HBV; test: Selectivity index (CC50 value/EC50 value); format: cell-based, Hepatitis B virus
Summary of the method: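 Ratio of CC50 to EC50, measuring antiviral activity against HBV relative to cytotoxicity in vitro; higher values indicate greater separation between viral inhibition and cell death.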

[4] = Metabolic stability study in human microsome; format: in vitro ADME
Summary of the method: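 Depletion of 1 μM compound followed by LC-MS/MS over 0–30 min (0, 3, 6, 9, 15, 30 min) after methanol quench. Incubations at 37 °C, pH 7.4 phosphate buffer, 0.5 mg/mL microsomal protein, with NADPH (1 mM) or a regenerating system as cofactor; controls lacked cofactor.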

[5] = Lyophilisation solubility assay (Lysa); format: physicochemical; conditions: phosphate buffer, pH 6.5, aqueous buffer, thermodynamic from solid
Summary of the method: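 Solubility in μg/mL is read by UV or HPLC-UV on filtrate, neat and diluted 1/10. Before filtration, the residue from evaporated 10 mM DMSO stock was taken up in pH 6.5 0.05 M phosphate buffer, then stirred 1 h, shaken 2 h and stood overnight, in duplicate.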

[6] = Cytotoxicity (CC50) in HepDE19 cells, CCK-8 cell viability; format: cell-based; conditions: human, HepDE19 cells; read-out: CC50
Summary of the method: as §1

[7] = HepG2.2.15 cells, in-house data, read-out: EC50

| SMILES | EC50 [1, 7] [nM] | CC50 [2] [nM] | Selectivity index (CC50/EC50) [3] | Human Hepatic Clearance [4] [mL/min/kg] | solubility thermodynamic [5] [µg/mL] | CC50 at 5 days [6] [nM] | EC50 ([1]; HepG2.2.15) [nM] |
| --- | --- | --- | --- | --- | --- | --- | --- |
| COC(=O)C1=C(CN2CCOC[C@H]2C(=O)O)NC(c2nccs2)=N[C@H]1c1ccc(F)c(F)c1Cl [Example 73, (S)-4-[(R)-6-(2-Chloro-3,4-difluoro-phenyl)-5-methoxycarbonyl-2-thiazol-2-yl-3,6-dihydro-pyrimidin-4-ylmethyl]-morpholine-3-carboxylic acid] | 1.2 | > 100000 | >83333 | 0 | > 656 | – | – |
| COC(=O)C1=C(CN2CCOC[C@H]2C(=O)O)NC(c2ncoc2C)=N[C@H]1c1ccc(F)cc1Cl [Example 68, (S)-4-[(R)-6-(2-Chloro-4-fluoro-phenyl)-5-methoxycarbonyl-2-(5-methyl-oxazol-4-yl)-3,6-dihydro-pyrimidin-4-ylmethyl]-morpholine-3-carboxylic acid] | 14 | > 100000 | >7407 | 0.23 | > 627 | – | – |
| COC(=O)C1=C(CN2CCO[C@H](C(C)C)[C@H]2C(=O)O)NC(c2nccs2)=N[C@H]1c1ccc(F)cc1Cl [Example 120, (2R,3S)-4-[(R)-6-(2-Chloro-4-fluoro-phenyl)-5-methoxycarbonyl-2-thiazol-2-yl-3,6-dihydro-pyrimidin-4-ylmethyl]-2-isopropyl-morpholine-3-carboxylic acid] | 4.8 | 81000 | 16875 | 2.58 | – | – | – |
| CCOC(=O)C1=C(CN2CCOC[C@H]2C(=O)O)NC(c2nccs2)=N[C@H]1c1cccc(F)c1Br [Example 66, (S)-4-[(R)-6-(2-Bromo-3-fluoro-phenyl)-5-ethoxycarbonyl-2-thiazol-2-yl-3,6-dihydro-pyrimidin-4-ylmethyl]-morpholine-3-carboxylic acid] | 0.7 | 95000 | 135714 | 1.64 | > 669 | – | – |
| CC(C)OC(=O)C1=C(CN2CCOC[C@H]2C(=O)O)NC(c2nccs2)=N[C@H]1c1ccc(F)cc1Cl [Example 98, (S)-4-[(R)-6-(2-Chloro-4-fluoro-phenyl)-5-isopropoxycarbonyl-2-thiazol-2-yl-3,6-dihydro-pyrimidin-4-ylmethyl]-morpholine-3-carboxylic acid] | 17 | 72000 | 4224 | 0 | > 650 | – | – |
| COC(=O)C1=C(CN2CCOC[C@H]2C(=O)O)NC(c2nc(C)cs2)=N[C@H]1c1ccc(F)cc1Cl [Example 17, (S)-4-[(R)-6-(2-Chloro-4-fluoro-phenyl)-5-methoxycarbonyl-2-(4-methyl-thiazol-2-yl)-3,6-dihydro-pyrimidin-4-ylmethyl]-morpholine-3-carboxylic acid] | 7 | > 100000 | >14286 | 0.74 | > 673 | – | – |
| COC(=O)C1=C(CN2CC(F)(F)C[C@H]2C(=O)O)NC(c2nc(C(F)(F)F)cs2)=N[C@H]1c1ccc(F)cc1Cl [Example 25, (R)-6-((S)-2-Carboxy-4,4-difluoro-pyrrolidin-1-ylmethyl)-4-(2-chloro-4-fluoro-phenyl)-2-(4-trifluoromethyl-thiazol-2-yl)-1,4-dihydro-pyrimidine-5-carboxylic acid methyl ester] | 5 | – | >20000 | 9.34 | 546 (≈ 937 µM) | > 100000 | – |
| CCOC(=O)C1=C(CN2CCO[C@H](C)[C@H]2C(=O)O)NC(c2nccs2)=N[C@H]1c1cccc(F)c1Cl [Example 118, (2R,3S)-4-[(R)-6-(2-Chloro-3-fluoro-phenyl)-5-ethoxycarbonyl-2-thiazol-2-yl-3,6-dihydro-pyrimidin-4-ylmethyl]-2-methyl-morpholine-3-carboxylic acid] | 0.5 | – | >200000 | 0.1 | > 630 | > 100000 | – |
| CCOC(=O)C1=C(CN2CC(F)(F)C[C@H]2C(=O)O)NC(c2nccs2)=N[C@H]1c1cccc(F)c1Cl [Example 64, (R)-6-((S)-2-Carboxy-4,4-difluoro-pyrrolidin-1-ylmethyl)-4-(2-chloro-3-fluoro-phenyl)-2-thiazol-2-yl-1,4-dihydro-pyrimidine-5-carboxylic acid ethyl ester] | 3 | – | 15667 | 0 | > 620 | 47000 | – |
| CCOC(=O)C1=C(CN2CC(F)(F)C[C@H]2C(=O)O)NC(c2nccs2)=N[C@H]1c1ccc(F)cc1Cl [Example 34, (R)-6-((S)-2-Carboxy-4,4-difluoro-pyrrolidin-1-ylmethyl)-4-(2-chloro-4-fluoro-phenyl)-2-thiazol-2-yl-1,4-dihydro-pyrimidine-5-carboxylic acid ethyl ester] | 10 | – | >10000 | 7.46 | 531 (≈ 1000 µM) | > 100000 | – |
| [2H]C1([2H])[C@@H](C(=O)O)N(CC2=C(C(=O)OC)[C@H](c3ccc(F)cc3Cl)N=C(c3nccs3)N2)CC1(F)F [Example 19, (R)-6-((S)-2-Carboxy-[3,3-^2H2]-4,4-difluoro-pyrrolidin-1-ylmethyl)-4-(2-chloro-4-fluoro-phenyl)-2-thiazol-2-yl-1,4-dihydro-pyrimidine-5-carboxylic acid methyl ester] | 5.7 | – | 15614 | 3.65 | > 654 | 89000 | – |
| COC(=O)C1=C(CN2CC(F)(F)C[C@H]2C(=O)O)NC(c2nccs2)=N[C@H]1c1ccc(Cl)cc1Cl [Example 85, (R)-6-((S)-2-Carboxy-4,4-difluoro-pyrrolidin-1-ylmethyl)-4-(2,4-dichloro-phenyl)-2-thiazol-2-yl-1,4-dihydro-pyrimidine-5-carboxylic acid methyl ester] | 6.2 | – | 10694 | 6.91 | > 599 | 66000 | – |
| COC(=O)C1=C(CN2CCOC[C@H]2C(=O)O)NC(c2nc(C3CC3)cs2)=N[C@H]1c1ccc(F)cc1Cl [Example 87, (3S)-4-[[(4R)-4-(2-Chloro-4-fluoro-phenyl)-2-(4-cyclopropylthiazol-2-yl)-5-methoxycarbonyl-1,4-dihydropyrimidin-6-yl]methyl]morpholine-3-carboxylic acid] | 22 | – | >4545 | 6.86 | > 600 | 100000 | – |
| CCOC(=O)C1=C(CN2CC(F)(F)CC[C@H]2C(=O)O)NC(c2nccs2)=N[C@H]1c1ccc(F)cc1Br [Example 107, (R)-4-(2-Bromo-4-fluoro-phenyl)-6-((S)-2-carboxy-5,5-difluoro-piperidin-1-ylmethyl)-2-thiazol-2-yl-1,4-dihydro-pyrimidine-5-carboxylic acid ethyl ester] | 1.5 | – | 16000 | 1.89 | 510 (≈ 868 µM) | 24000 | – |
| COC(=O)C1=C(CN2CCOC[C@H]2C(=O)O)NC(c2nccs2)=N[C@H]1c1ccc(Cl)c(F)c1 [Example 77, (S)-4-[(S)-6-(4-Chloro-3-fluoro-phenyl)-5-methoxycarbonyl-2-thiazol-2-yl-3,6-dihydro-pyrimidin-4-ylmethyl]-morpholine-3-carboxylic acid] | – | – | 14286 | 1.43 | > 631 | > 100000 | 7 |
| CCOC(=O)C1=C(CN2CCOC[C@H]2C(=O)O)NC(c2nccn2C)=N[C@H]1c1cccc(F)c1Cl [Example 97, (S)-4-[(R)-6-(2-Chloro-3-fluoro-phenyl)-5-ethoxycarbonyl-2-(1-methyl-1H-imidazol-2-yl)-3,6-dihydro-pyrimidin-4-ylmethyl]-morpholine-3-carboxylic acid] | 5 | – | 8800 | 1.63 | > 640 | 44000 | – |
| CCOC(=O)C1=C(CN2CCOC[C@H]2C(=O)O)NC(c2nccs2)=N[C@H]1c1cccc(F)c1 [Example 53, (S)-4-[(S)-5-Ethoxycarbonyl-6-(3-fluoro-phenyl)-2-thiazol-2-yl-3,6-dihydro-pyrimidin-4-ylmethyl]-morpholine-3-carboxylic acid] | 14 | – | 4769 | 0 | > 621 | 69000 | – |
